What was measured:
[1] = tested on: male Wistar rats; assay: Experiment 2: effect of the compound on blood pressure in rats under calcium chloride and norepinephrine infusion; format: in vivo, rat
Description: (§1) Eight-week old male Wistar rats weighing 310-330 g were used in this experiment. The rats were anesthetized with 1,000 mg/kg of urethane and 80 mg/kg of α-chloralose by subperitoneal injection, and natural respiration was maintained. In this experiment, 100 mg of the compound was dissolved in 1 ml of dimethylsulfoxide (DMSO) and the resulting DMSO solution of the compound was stored at 4° C. Norepinephrine solution was prepared by dissolving 1 mg of norepinephrine in 41 μl of distilled water.
Similarly to Experiment 1, this experiment was performed at 20 to 25° C. Furthermore, similarly to Experiment 1, continuous infusion catheters of calcium chloride solution or norepinephrine solution containing calcium chloride were inserted into the right external jugular veins of the rats, and microchip catheters (SPC-320, Millar) were inserted into the aorta via the right common arteries.
(§2) A 1-lead electrocardiogram and the systolic pressure and diastolic pressure were recorded on a personal computer via an A/D converter. In the preparation step, blood pressure, pulse, and electrocardiogram of the rats were monitored for 15 minutes and allowed to stabilize, and then 5% dextrose solution containing calcium chloride (at a concentration based on the weight of the rat) was infused into the right external jugular vein for 25 minutes at 16.6 μl/min (9.0 mg/kg/min of calcium chloride).
Secondly, norepinephrine solution containing calcium chloride without changes in the dosage regimen was immediately injected at a rate of 40 μg/kg/min (in the form of a norepinephrine solution containing calcium chloride). Five minutes after commencement of injection (intravenous injection) of norepinephrine, continuous injection of calcium chloride and norepinephrine in the form of a norepinephrine solution containing calcium chloride was started, and 0.2 ml of 1% DMSO solution as a solvent control was administered over 30 seconds to the first rat (weight: 310 g) via the right femoral vein; this rat was defined as Control 3. After the solvent control was injected, 1% DMSO solution as a solvent control was additionally administered to Control 3 at 10 μl/min from commencement of solvent control injection to 15 minutes after the start of administration. Similarly to Control 3, 5 minutes after commencement of injection (intravenous injection) of norepinephrine in the form of a norepinephrine solution containing the calcium chloride, continuous injection of the calcium chloride and norepinephrine in the form of a norepinephrine solution containing calcium chloride was started, and 0.2 ml of 1% DMSO solution containing 0.3 mg/kg of the compound was administered over 30 seconds to a second rat (weight: 330 g; referred to as Test drug 3), and 1% DMSO solution containing 0.02 mg/kg of the test drug was then administered for 14 minutes at a rate of 0.02 mg/kg/min. Systolic pressure (mmHg) and diastolic pressure (mmHg) of each rat were measured at 20 heart beats every 2 minutes for 14 minutes after commencement of intravenous injection of the test drug. Mean blood pressure was calculated from the measured systolic pressure (mmHg) and diastolic pressure (mmHg) according to the following formula: mean blood pressure=[…].

[2] = tested on: male Wistar rats; assay: Experiment 1: left ventricular end diastolic pressure in rats under calcium chloride and norepinephrine infusion; format: in vivo, rat
Description: as §1, with “In Experiment 1, the hydrochloride of 4-[3-(4-benzylpiperidine-1-yl) propionyl]-7-methoxy-2,3,4,5-tetrahydro-1,4-benzothiazepine, the compound in the invention (hereinafter called the compound), was used as a pharmaceutically acceptable salt of the 1,4-benzothiazepine derivative. Eight-week” for “Eight-week”, “300-330” for “310-330”, “the study.” for “this experiment.”, “water, at an infusion speed of 40 μg/kg/min.” for “water.”
Firstly, continuous infusion catheters of calcium chloride solution or norepinephrine solution containing calcium chloride were inserted into the right external jugular veins of the rats, and microchip catheters (SPC-320, Millar) were inserted into the left ventricles via the right common arteries. In addition, test drug infusion catheters were inserted into the right femoral veins.
as §2, with “left ventricular” for “systolic pressure and diastolic”, “recorded simultaneously” for “recorded”, “converter. In order to determine the left ventricular end diastolic pressure, a pressure equivalent to the R wave of the electrocardiogram was measured at 20 heart beats every minute, and the mean of the pressure so measured was determined as the left ventricular end diastolic pressure, at the time of measuring.” for “converter.”, “20” for “25”
Secondly, norepinephrine solution containing calcium chloride without changes in dosage was immediately injected at a rate of 40 μg/kg/min via the right external jugular vein. After the start of the administration, calcium chloride and norepinephrine were then continuously injected in the form of a norepinephrine solution containing calcium chloride. With continuous injection of calcium chloride and norepinephrine (in the form of a norepinephrine solution containing calcium chloride) via the right external jugular vein, 0.2 ml of […] was administered over 30 seconds to the first rat (weight: 300 g) as a control via the right femoral vein, 5 minutes after commencement of injection (intravenous injection) of calcium chloride and norepinephrine (in the form of a norepinephrine solution containing calcium chloride) via the right external jugular vein; this rat was defined as Control 1. Similarly to Control 1, with continuous injection of calcium chloride and norepinephrine (in the form of a norepinephrine solution containing calcium chloride) via the right external jugular vein, 0.2 ml of 1% DMSO solution as a solvent control was administered over 30 seconds to a second rat (weight: 310 g) via the right femoral vein, 5 minutes after commencement of injection (intravenous injection) via the right external jugular vein of calcium chloride and norepinephrine (in the form of a norepinephrine solution containing calcium chloride); this rat was defined as Control 2. […]

COc1ccc2c(c1)CN(C(=O)CCN1CCC(Cc3ccccc3)CC1)CCS2 [the compound, 4-[3-(4-benzylpiperidine-1-yl)propionyl]-7-methoxy-2,3,4,5-tetrahydro-1,4-benzothiazepine]
Mean blood pressure ([1]; Test drug 3: 0.3 mg/kg i.v. over 30 s then 0.02 mg/kg/min for 14 min, 0 minutes (just before the start of test drug administration)): 136 mmHg | Mean blood pressure ([1]; Test drug 3: 0.3 mg/kg i.v. over 30 s then 0.02 mg/kg/min for 14 min, 5 minutes before test drug (just before the start of norepinephrine), baseline): 125 mmHg | Mean blood pressure ([1]; Test drug 3: 0.3 mg/kg i.v. over 30 s then 0.02 mg/kg/min for 14 min, 30 minutes before test drug (5 minutes before the start of CaCl2), baseline): 122 mmHg | Mean blood pressure ([1]; Test drug 3: 0.3 mg/kg i.v. over 30 s then 0.02 mg/kg/min, CaCl2 + norepinephrine infusion, 2 minutes after the start of test drug administration): 149 mmHg | Mean blood pressure ([1]; Test drug 3: 0.3 mg/kg i.v. over 30 s then 0.02 mg/kg/min, CaCl2 + norepinephrine infusion, 4 minutes after the start of test drug administration): 162 mmHg | Mean blood pressure ([1]; Test drug 3: 0.3 mg/kg i.v. over 30 s then 0.02 mg/kg/min, CaCl2 + norepinephrine infusion, 6 minutes after the start of test drug administration): 141 mmHg | Mean blood pressure ([1]; Test drug 3: 0.3 mg/kg i.v. over 30 s then 0.02 mg/kg/min, CaCl2 + norepinephrine infusion, 8 minutes after the start of test drug administration): 139 mmHg | Mean blood pressure ([1]; Test drug 3: 0.3 mg/kg i.v. over 30 s then 0.02 mg/kg/min, CaCl2 + norepinephrine infusion, 10 minutes after the start of test drug administration): 135 mmHg | Mean blood pressure ([1]; Test drug 3: 0.3 mg/kg i.v. over 30 s then 0.02 mg/kg/min, CaCl2 + norepinephrine infusion, 12 minutes after the start of test drug administration): 136 mmHg | Mean blood pressure ([1]; Test drug 3: 0.3 mg/kg i.v. over 30 s then 0.02 mg/kg/min, CaCl2 + norepinephrine infusion, 14 minutes after the start of test drug administration): 134 mmHg | Left ventricular diastolic pressure compared with Controls 1 and 2 at the same time point ([2]; 15 minutes after commencement of the test drug, Test drugs 1 and 2): less than half those in Controls 1 and 2 | Left ventricular end diastolic pressure ([2]; Test drug 1: 0.3 mg/kg i.v. over 30 s + 0.02 mg/kg/min to 15 min, 0 minutes (just before the start of test drug administration)): 8.9 mmHg | Left ventricular end diastolic pressure ([2]; Test drug 1: 0.3 mg/kg i.v. over 30 s + 0.02 mg/kg/min to 15 min, 5 minutes before test drug (just before the start of norepinephrine), baseline): 8.6 mmHg | Left ventricular end diastolic pressure ([2]; Test drug 1: 0.3 mg/kg i.v. over 30 s + 0.02 mg/kg/min to 15 min, 10 minutes before test drug (15 minutes after the start of CaCl2), baseline): 8.5 mmHg | Left ventricular end diastolic pressure ([2]; Test drug 1: 0.3 mg/kg i.v. over 30 s + 0.02 mg/kg/min to 15 min, 15 minutes before test drug (10 minutes after the start of CaCl2), baseline): 8.6 mmHg | Left ventricular end diastolic pressure ([2]; Test drug 1: 0.3 mg/kg i.v. over 30 s + 0.02 mg/kg/min to 15 min, 20 minutes before test drug (5 minutes after the start of CaCl2), baseline): 7.9 mmHg | Left ventricular end diastolic pressure ([2]; Test drug 1: 0.3 mg/kg i.v. over 30 s + 0.02 mg/kg/min to 15 min, 25 minutes before test drug (just after the start of CaCl2), baseline): 7.8 mmHg | Left ventricular end diastolic pressure ([2]; Test drug 1: 0.3 mg/kg i.v. over 30 s + 0.02 mg/kg/min to 15 min, CaCl2 + norepinephrine infusion, 5 minutes after the start of test drug administration): 10.6 mmHg | Left ventricular end diastolic pressure ([2]; Test drug 1: 0.3 mg/kg i.v. over 30 s + 0.02 mg/kg/min to 15 min, CaCl2 + norepinephrine infusion, 10 minutes after the start of test drug administration): 12.5 mmHg | Left ventricular end diastolic pressure ([2]; Test drug 1: 0.3 mg/kg i.v. over 30 s + 0.02 mg/kg/min to 15 min, CaCl2 + norepinephrine infusion, 15 minutes after the start of test drug administration): 11.8 mmHg | Left ventricular end diastolic pressure ([2]; Test drug 1: 0.3 mg/kg i.v. over 30 s + 0.02 mg/kg/min to 15 min, CaCl2 + norepinephrine infusion, 30 minutes before test drug (5 minutes before the start of CaCl2), baseline): 7.5 mmHg | Left ventricular end diastolic pressure ([2]; Test drug 2: 0.3 mg/kg i.v. over 30 s only, 0 minutes (just before the start of test drug administration)): 9.6 mmHg | Left ventricular end diastolic pressure ([2]; Test drug 2: 0.3 mg/kg i.v. over 30 s only, 5 minutes before test drug (just before the start of norepinephrine), baseline): 9.3 mmHg | Left ventricular end diastolic pressure ([2]; Test drug 2: 0.3 mg/kg i.v. over 30 s only, 10 minutes before test drug (15 minutes after the start of CaCl2), baseline): 9.0 mmHg | Left ventricular end diastolic pressure ([2]; Test drug 2: 0.3 mg/kg i.v. over 30 s only, 15 minutes before test drug (10 minutes after the start of CaCl2), baseline): 9.2 mmHg | Left ventricular end diastolic pressure ([2]; Test drug 2: 0.3 mg/kg i.v. over 30 s only, 20 minutes before test drug (5 minutes after the start of CaCl2), baseline): 8.8 mmHg | Left ventricular end diastolic pressure ([2]; Test drug 2: 0.3 mg/kg i.v. over 30 s only, 25 minutes before test drug (just after the start of CaCl2), baseline): 8.6 mmHg | Left ventricular end diastolic pressure ([2]; Test drug 2: 0.3 mg/kg i.v. over 30 s only, CaCl2 + norepinephrine infusion, 5 minutes after the start of test drug administration): 13.8 mmHg | Left ventricular end diastolic pressure ([2]; Test drug 2: 0.3 mg/kg i.v. over 30 s only, CaCl2 + norepinephrine infusion, 10 minutes after the start of test drug administration): 16.4 mmHg | Left ventricular end diastolic pressure ([2]; Test drug 2: 0.3 mg/kg i.v. over 30 s only, CaCl2 + norepinephrine infusion, 15 minutes after the start of test drug administration): 15.3 mmHg | Left ventricular end diastolic pressure ([2]; Test drug 2: 0.3 mg/kg i.v. over 30 s only, CaCl2 + norepinephrine infusion, 30 minutes before test drug (5 minutes before the start of CaCl2), baseline): 8.4 mmHg
